These results are taken from ChEMBL document CHEMBL4396923, “Applications of amide isosteres in medicinal chemistry” (Bioorg Med Chem Lett, 2019).

What is called IC50 is the concentration that inhibits the measured activity by half. Broadly, the half-life is the time needed for the level to fall by half in the phase considered. In general, Ki refers to the dissociation constant of the complex between target and ligand, obtained from inhibition or displacement. A high value points to a looser hold on the target. A word on the EC50: it is the concentration that produces a half-maximal response. What is called ED50 is the dose that gives a 50% effect, or the effect in half of the subjects. Low readings indicate greater potency, high ones weaker potency.

The structures appear in SMILES notation. Residues, ends and D or L forms follow the SMILES beside them. Some results are limits rather than exact numbers.

The target in data set [1] is Beta-secretase 1 (Homo sapiens, UniProt P56817). Nature of the data set: Inhibition of BACE-1 (unknown origin).
Data set [2] deals with D(2) dopamine receptor (Homo sapiens) (UniProt P14416). Nature of the data set: Agonist activity at human D2 receptor expressed in NIH/3T3 cells co-expressing beta-galactosidase assessed as increase in beta-galactosidase activity at 10 uM incubated for 5 days by spectrophotometry relative to control. Type of data set: cell-based.
Data set [3] is described as follows: Half life in human serum. It counts as ADME, cell-free.
Data set [4] deals with Delta-type opioid receptor (Homo sapiens, UniProt P41143).
Description: Agonist activity at delta opioid receptor (unknown origin) expressed in CHO cells
The subject of data set [5] is Hamster. Nature of the data set: Protection against HLE-induced acute lung damage in hamster. Type of data set: functional. As to conditions: Cricetinae.
Data set [6] has as its target angiotensin-converting enzyme (Homo sapiens, UniProt P12821). Nature of the data set: Drug metabolism assessed as angiotensin converting enzyme (unknown origin)-mediated Gly3-Phe4 cleavage by measuring half life. It counts as ADME.
Data set [7] has as its target Mu-type opioid receptor (Homo sapiens, UniProt P35372). Nature of the data set: Agonist activity at mu opioid receptor (unknown origin) expressed in CHO cells. It counts as cell-based.
The nature of data set [8]: Stability in human plasma assessed as parent compound remaining at 4 hrs. It counts as ADME, cell-free. The conditions noted are these: read-out: Stability.
Data set [9] deals with Kappa-type opioid receptor (Homo sapiens, UniProt P41145). As to the kind of experiment: Agonist activity at kappa opioid receptor (unknown origin) expressed in CHO cells. It counts as cell-based.
A short description of data set [10]: Stability in rat plasma assessed as parent compound remaining at 4 hrs. It counts as ADME, cell-free. The conditions noted are these: read-out: Stability.

Delta-type opioid receptor, sequence (P41143 whole entry): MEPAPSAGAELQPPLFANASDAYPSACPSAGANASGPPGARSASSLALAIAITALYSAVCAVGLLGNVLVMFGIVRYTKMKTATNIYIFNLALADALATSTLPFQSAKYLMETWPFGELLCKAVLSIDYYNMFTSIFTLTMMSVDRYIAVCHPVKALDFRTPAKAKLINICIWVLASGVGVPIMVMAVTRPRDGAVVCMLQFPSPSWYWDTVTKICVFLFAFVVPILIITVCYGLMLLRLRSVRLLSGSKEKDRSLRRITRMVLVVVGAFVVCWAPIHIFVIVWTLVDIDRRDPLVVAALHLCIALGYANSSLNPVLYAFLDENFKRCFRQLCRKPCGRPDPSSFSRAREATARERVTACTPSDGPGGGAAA
angiotensin-converting enzyme, sequence (P12821 whole entry): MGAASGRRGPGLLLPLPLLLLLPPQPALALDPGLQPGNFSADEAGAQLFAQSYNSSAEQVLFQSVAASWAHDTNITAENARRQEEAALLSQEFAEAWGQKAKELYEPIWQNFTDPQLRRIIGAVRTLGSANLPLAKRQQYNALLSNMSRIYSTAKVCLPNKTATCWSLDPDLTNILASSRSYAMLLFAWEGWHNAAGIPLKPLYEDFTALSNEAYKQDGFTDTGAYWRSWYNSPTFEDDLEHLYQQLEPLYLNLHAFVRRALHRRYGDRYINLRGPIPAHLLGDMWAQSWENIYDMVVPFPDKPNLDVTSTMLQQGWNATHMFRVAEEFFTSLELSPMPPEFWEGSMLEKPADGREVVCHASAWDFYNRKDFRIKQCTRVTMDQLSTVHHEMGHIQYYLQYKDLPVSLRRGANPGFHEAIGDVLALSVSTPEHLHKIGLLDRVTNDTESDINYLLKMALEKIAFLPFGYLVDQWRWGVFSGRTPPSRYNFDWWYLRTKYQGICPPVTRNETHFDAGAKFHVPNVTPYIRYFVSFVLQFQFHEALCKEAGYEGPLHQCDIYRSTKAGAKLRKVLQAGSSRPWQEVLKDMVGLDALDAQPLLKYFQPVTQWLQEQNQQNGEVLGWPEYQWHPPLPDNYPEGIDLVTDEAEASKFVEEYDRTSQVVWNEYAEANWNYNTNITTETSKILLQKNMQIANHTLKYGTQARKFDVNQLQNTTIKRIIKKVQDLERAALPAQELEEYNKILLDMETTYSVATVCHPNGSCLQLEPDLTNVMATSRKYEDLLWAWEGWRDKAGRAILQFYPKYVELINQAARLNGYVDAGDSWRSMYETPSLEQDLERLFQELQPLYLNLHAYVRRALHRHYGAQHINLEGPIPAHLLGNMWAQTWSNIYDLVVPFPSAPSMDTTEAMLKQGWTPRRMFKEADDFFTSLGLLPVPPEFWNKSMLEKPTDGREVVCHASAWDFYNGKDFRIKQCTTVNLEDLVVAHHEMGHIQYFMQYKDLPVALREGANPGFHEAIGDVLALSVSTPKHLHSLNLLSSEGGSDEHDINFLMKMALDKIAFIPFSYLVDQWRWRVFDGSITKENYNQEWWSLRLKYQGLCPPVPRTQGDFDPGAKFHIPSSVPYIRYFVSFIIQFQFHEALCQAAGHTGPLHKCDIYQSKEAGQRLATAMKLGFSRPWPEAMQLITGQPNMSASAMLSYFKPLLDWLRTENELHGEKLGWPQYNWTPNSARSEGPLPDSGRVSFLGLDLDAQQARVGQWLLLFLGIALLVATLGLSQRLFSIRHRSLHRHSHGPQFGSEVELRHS
D(2) dopamine receptor (Homo sapiens), sequence (P14416 whole entry): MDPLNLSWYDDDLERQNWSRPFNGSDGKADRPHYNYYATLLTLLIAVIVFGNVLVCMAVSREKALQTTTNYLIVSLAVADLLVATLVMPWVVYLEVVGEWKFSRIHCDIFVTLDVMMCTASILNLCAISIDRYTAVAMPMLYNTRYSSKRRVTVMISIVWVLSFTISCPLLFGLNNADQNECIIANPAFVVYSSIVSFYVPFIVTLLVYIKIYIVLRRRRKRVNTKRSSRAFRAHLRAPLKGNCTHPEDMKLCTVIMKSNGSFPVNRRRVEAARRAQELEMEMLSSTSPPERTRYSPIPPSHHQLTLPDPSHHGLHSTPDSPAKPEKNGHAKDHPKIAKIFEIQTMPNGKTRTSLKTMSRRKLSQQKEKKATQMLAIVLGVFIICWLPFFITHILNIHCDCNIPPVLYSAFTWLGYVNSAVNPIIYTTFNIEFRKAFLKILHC
Beta-secretase 1, sequence (P56817 whole entry): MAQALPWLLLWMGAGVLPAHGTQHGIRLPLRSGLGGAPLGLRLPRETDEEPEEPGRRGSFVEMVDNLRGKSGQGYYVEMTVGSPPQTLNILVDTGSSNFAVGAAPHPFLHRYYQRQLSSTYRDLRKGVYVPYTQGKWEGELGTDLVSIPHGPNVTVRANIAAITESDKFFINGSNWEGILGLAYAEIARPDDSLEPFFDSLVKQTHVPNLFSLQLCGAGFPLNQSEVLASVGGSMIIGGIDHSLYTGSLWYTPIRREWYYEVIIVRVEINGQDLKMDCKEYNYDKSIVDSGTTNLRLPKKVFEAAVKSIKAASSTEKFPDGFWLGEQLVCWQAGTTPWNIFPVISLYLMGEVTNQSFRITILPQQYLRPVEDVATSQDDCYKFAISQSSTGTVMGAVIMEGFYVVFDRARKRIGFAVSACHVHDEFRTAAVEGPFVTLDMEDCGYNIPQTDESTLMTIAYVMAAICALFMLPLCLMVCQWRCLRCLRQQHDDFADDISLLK
Mu-type opioid receptor, sequence (P35372 whole entry): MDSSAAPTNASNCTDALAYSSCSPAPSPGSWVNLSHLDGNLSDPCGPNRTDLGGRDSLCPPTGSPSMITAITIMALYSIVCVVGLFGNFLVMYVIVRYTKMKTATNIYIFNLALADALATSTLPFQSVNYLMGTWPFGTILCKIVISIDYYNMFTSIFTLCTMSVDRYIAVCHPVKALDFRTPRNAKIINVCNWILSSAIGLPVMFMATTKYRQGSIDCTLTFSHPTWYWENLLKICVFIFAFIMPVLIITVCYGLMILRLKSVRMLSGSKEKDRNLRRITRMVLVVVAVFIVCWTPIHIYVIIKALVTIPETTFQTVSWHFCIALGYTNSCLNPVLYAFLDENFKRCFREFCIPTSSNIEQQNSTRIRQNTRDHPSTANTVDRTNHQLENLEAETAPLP
Kappa-type opioid receptor, sequence (P41145 whole entry): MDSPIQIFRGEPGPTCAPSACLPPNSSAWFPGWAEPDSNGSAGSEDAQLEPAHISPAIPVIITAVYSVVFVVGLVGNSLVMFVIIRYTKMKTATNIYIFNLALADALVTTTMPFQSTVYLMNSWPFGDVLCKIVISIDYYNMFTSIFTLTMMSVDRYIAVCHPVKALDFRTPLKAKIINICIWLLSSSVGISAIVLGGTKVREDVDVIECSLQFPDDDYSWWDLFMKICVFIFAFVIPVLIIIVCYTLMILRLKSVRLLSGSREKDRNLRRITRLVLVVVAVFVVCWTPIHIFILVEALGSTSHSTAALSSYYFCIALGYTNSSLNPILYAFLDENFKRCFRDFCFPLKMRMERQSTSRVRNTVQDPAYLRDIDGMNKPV

`COC(=O)[C@@H]1C[C@H](NC(=O)[C@@H](NC(=O)C[C@H](O)[C@H](Cc2cc(F)cc(F)c2)NC(=O)C(O)c2ccccc2-c2ccccc2)C(C)C)C[C@H](C(=O)OC)C1` (stereo partly drawn): the midpoint of inhibition in data set [1], the IC50, lay at 120 nM.
In the case of `CC(C)C[C@H](NC(=O)[C@@H]1CCCN1)C(=O)NCC(N)=O` (H-Pro-Leu-Gly-NH2), the Activity in data set [2] turned out to be 146%.
Consider `CC(C)C[C@H](NC(=O)[C@H](Cc1ccccc1)NC1(CNC(=O)CNC(=O)[C@@H](N)Cc2ccc(O)cc2)COC1)C(=O)O.O=C(O)C(F)(F)F`, for which the half-life in [3] was determined as 0.25 h. For the same compound, the affinity in data set [4] corresponds to a Ki of 157 nM.
In turn, `CC(C)C[C@H](NC(=O)[C@@H](/C=C(\F)CNC(=O)CNC(=O)[C@@H](N)Cc1ccc(O)cc1)Cc1ccccc1)C(=O)O` displayed a half-maximal effective concentration (EC50) in [4] of 43 nM.
For the compound `CC(C)C[C@H](NC1([C@H](Cc2ccccc2)NC(=O)CNC(=O)CNC(=O)[C@@H](N)Cc2ccc(O)cc2)COC1)C(=O)O.O=C(O)C(F)(F)F`, the half-life in [3] is 0.433 h. The compound also showed a Ki in [4] of 43 nM.
For `CC(C)C[C@H](NC(=O)[C@@H](/C=C/CNC(=O)CNC(=O)[C@@H](N)Cc1ccc(O)cc1)Cc1ccccc1)C(=O)O`, a half-maximal response in data set [4] (EC50) required 587 nM.
`CC(C)C(NC(=O)Cn1c(-c2ccc(F)cc2)ncc(N)c1=O)C(=O)C(F)(F)F` (stereo not drawn): the ED50 in [5] is 7.5 mg/kg.
Take `CC(C)C[C@H](NC(=O)[C@H](Cc1ccccc1)NC(=O)CNC(=O)CNC1([C@@H](N)Cc2ccc(O)cc2)COC1)C(=O)O.O=C(O)C(F)(F)F`: the half-life in [3] is 3.2 h.
Same read-out and setting: in the case of `CC(C)C[C@H](NC(=O)[C@H](Cc1ccccc1)NC(=O)CNC1(CNC(=O)[C@@H](N)Cc2ccc(O)cc2)COC1)C(=O)O.O=C(O)C(F)(F)F` it was 18 h.
`CC(C)C[C@H](NC(=O)[C@H](Cc1ccccc1)NC(=O)CNC(=O)CNC([C@@H](N)Cc1ccc(O)cc1)C(F)(F)F)C(=O)O` (mixture of isomers): the EC50 in data set [4] is over 10 nM.
On to `CC(C)C[C@H](NC(=O)[C@H](Cc1ccccc1)NC(=O)CNC(=O)CNC(=O)[C@@H](N)Cc1ccc(O)cc1)C(=O)O` [ENKEPHALIN], for which the half-life in [6] turned out to be 2.17 h.
`Cc1ccc(C[C@H](N)/C(F)=C/CC(=O)NCC(=O)N[C@@H](Cc2ccccc2)C(=O)N[C@@H](CC(C)C)C(=O)O)cc1`: the half-maximal effective concentration (EC50) in data set [7] is 60 nM; in [9], over 10 nM; in [4] it was 5 nM. Further, the remaining at 4 h in [8] amounted to 68%; in data set [10], 76%.
